Measurements reported in patent US20150164901A1, “COMPOUNDS, COMPOSITIONS AND METHODS FOR TREATING OR PREVENTING NEURODEGENERATIVE DISORDERS” (President and Fellows of Harvard College, priority 2012, published 2015).

How the values were obtained:
SMN transcript = assay: Quantitative RT-PCR of SMN transcript in motor neuron cultures (FIG. 6C); type: cell-based; details: compared to control
SMN [1] = assay: Immunocytochemical analysis of SMN in motor neurons derived from mouse embryonic stem cells (FIG. 6D-6G); type: cell-based
From the text: FIGS. 6B and 6C are bar graphs quantifying the results in FIG. 6A. […] SMN is shown in red and GFP driven by the motor neuron specific promoter hb9 is shown in green. […] High SMN expressor is defined as those motor neurons that harbor SMN levels greater than the top 10th percentile as defined in the DMSO control. Error bars indicate ±S.E.M.

motor neurons = assay: Survival of wild type and ALS patient motor neurons (FIG. 17); type: cell-based, human; details: BJ RIPS (WT), 18A (WT), 27B (SOD1), 31D (TDP43), A19 (C9ORF)
SMN [2] = assay: SMN immunostaining in human motor neurons derived from SMA patient iPS cells (FIG. 10B, 10D, 10F); type: cell-based; details: SMA Type II (1-51) and SMA Type I iPS-derived motor neurons on glia with Ara C, 7 days
From the text: (§1) Representative images are shown for Type II motor neurons. SMN is shown in red, the motor neuron marker islet 1 is shown in green, and the nuclear marker Hoechst is shown in blue. […] Error bars indicate ±S.E.M.

[3] = system: proliferation in the culture; assay: Proliferation in motor neuron cultures; type: cell-based
From the text: (§2) As shown herein, MLN increases SMN in human MNs, both in measures of average SMN and # of high SMN expressors. […] The effect on proliferation can be dissociated, for example, by using AraC in protocols for differentiation of cells into motor neurons.

SMN [4] = assay: Histogram analysis of SMN expression in motor neurons under SMN RNAi (FIG. 8C); type: cell-based
From the text: (§3) MLN4924 is able to reverse the effects of SMN knockdown on motor neuron death. Representative images are shown.

SMN protein = assay: SMN-specific antibody staining of SMA patient and parent fibroblasts (FIG. 2C); type: cell-based; details: human fibroblasts derived from SMA patients and their parents
From the text: FIG. 2A is a Western blot analysis showing the levels of SMN in cells expressing wild-type SMN and the dominant negative form of Cullin1 protein. […] FIGS. 2D and 2E are dose response curves of nuclear (FIG. 2D) and cytoplasmic (FIG. 2E) SMN levels in SMA patient and parent fibroblasts treated with MLN4924 at the indicated time points. The error bars in FIGS. 2D and 2B indicate ±S.E.M. SMN levels are normalized to DMSO control for each cell line at each time point.

SMN [5] = assay: SMN in human motor neurons (summary of data); type: cell-based; details: human MNs
From the text: as §2

SMN [6] = assay: Western blot of SMN in lysates of motor neuron cultures (FIG. 6A-6B); type: cell-based; details: treated for 3 days, DMSO as control
[7] = system: motor neurons derived from ES cells; assay: Survival of ES cell-derived hb9-GFP motor neurons, time-course imaging (FIG. 7); type: cell-based, mouse
Description: FIG. 7A is a line graph showing the results of a time-course analysis of motor neurons derived from ES cells expressing GFP under the motor neuron specific hb9 promoter performed with imaging every 6 hours for a 7 day period. […] The error bars indicate ±S.E.M.

SMN [8] = assay: SMN levels in wild type and patient iPS-derived motor neurons (FIG. 16); type: cell-based, human; details: motor neurons BJ RIPS (WT), A19 (C9 ORF), 27B (SOD1), 1-51N (SMA type II)
Brn2+ neurons = assay: Survival of Brn2+ neurons (FIG. 13); type: cell-based; details: compared to DMSO control
Gem counts = Gem counts in wild type and ALS patient motor neurons (FIG. 18); type: cell-based, human; details: motor neurons 18A (WT), A19 (C9 ORF), 31D (TDP43), 27B (SOD1)
human motor neurons [9] = assay: Motor neuron survival in human motor neurons (summary of data); type: cell-based
From the text: as §2

[10] = system: human motor neurons derived from ALS patient iPS cells; assay: Survival of human motor neurons derived from wild-type and ALS patient ES or iPS cells (FIG. 11); type: cell-based; details: wild-type (HUES3, 18a) and ALS patient (47a) lines on glia, treated 14 days after 7 days in culture
From the text: FIG. 11A are immune stains of motor neurons derived from human wild-type (HUES3, 18a) and ALS patient (47a) ES or iPS cells. […] Representative images are shown for the Hues3 line which expresses GFP under the hb9 promoter shown is green, human nuclear antigen (hNA) shown in pink, and the nuclear marker Hoechst is shown in blue. […] Error bars indicate ±S.E.M.

hb9_RFP motor neurons = assay: SMN knockdown (shRNA lentivirus) induced motor neuron death (FIG. 8A-8B); type: cell-based; details: SMN knockdown using shRNA lentivirus in hb9_RFP motor neurons
From the text: as §3

[11] = system: SMN-deficient motor neurons; assay: Survival of SMA-like mouse motor neurons derived from ES cells of A2 mice (FIG. 9B); type: cell-based; details: A2 mouse ES-derived motor neurons (no mSMN, two copies of hSMN2), treated four days
Description: (§4) FIG. 9A are images of immunostains of motor neurons derived from the ES-cells of A2 mice that lack a functional copy of mSMN but are supplemented with two copies of hSMN2 and thus are deficient but not completely lacking SMN protein were treated with MLN4924 for four days, SMN is shown in red and the hb9 promoter driven-GFP is shown in green. […] The error bars indicate ±S.E.M.

SMN [12] = assay: SMN immunostaining in SMA-like mouse motor neurons (FIG. 9C-9D); type: cell-based; details: A2 mouse ES-derived motor neurons, treated four days
Description: as §4

[13] = system: SMN-deficient human motor neurons; assay: Survival of human motor neurons derived from SMA patient iPS cells (FIG. 10C, 10E); type: cell-based; details: SMA Type II (1-51) and SMA Type I iPS-derived motor neurons on glia with Ara C, 7 days
From the text: as §1

human motor neurons [14] = assay: SMN expression distribution in human motor neurons treated with Trichostatin A (FIG. 14); type: cell-based; details: compared to a control

NS(=O)(=O)OC[C@@H]1C[C@@H](n2ccc3c(N[C@H]4CCc5ccccc54)ncnc32)C[C@@H]1O [MLN4924, ((1S,2S,4R)-4-(4-(((S)-2,3-dihydro-1H-inden-1-yl)amino)-7H-pyrrolo[2,3-d]pyrimidin-7-yl)-2-hydroxycyclopentyl)methyl sulfamate]
SMN transcript levels (quantitative RT-PCR) (SMN transcript): not significantly affected | number of high SMN expressing motor neurons (SMN [1]; high SMN expressor = SMN levels greater than the top 10th percentile of DMSO control): dose-dependent effect | amount of low SMN expressors (histogram analysis) (SMN [1]; mouse ES-derived motor neurons): without affecting | number of motor neurons with higher levels of SMN expression (histogram analysis) (SMN [1]; mouse ES-derived motor neurons): increases | average intensity of SMN (SMN [1]; mouse ES-derived motor neurons, treated at plating, fixed four days later, increasing levels of MLN4924): significantly increases in a dose-dependent manner | survival of motor neurons (motor neurons): increases the survival | SMN levels (SMN [2]): significantly increases | number of high SMN expressing motor neurons (SMN [2]): significantly increases | proliferation [3]: inhibits proliferation | number of high SMN expressing motor neurons (SMN [4]): increases | SMN protein (SMN-specific antibody staining) (SMN protein): stabilization of SMN protein | # of high SMN expressors (SMN [5]): increases | average SMN (SMN [5]): increases | SMN levels (Western blot) (SMN [6]): significantly increased | motor neuron survival (time-course analysis) ([7]; imaging every 6 hours for a 7 day period): significantly increases | motor neuron survival (dose response) ([7]; mouse-ES derived motor neurons): dose-dependent significant increase | SMN levels (SMN [8]): increases SMN levels | survival of Brn2+ neurons (Brn2+ neurons): increases survival | Gem counts (Gem counts): increases Gem counts | survival of motor neurons derived from ALS patients and their parents (human motor neurons [9]): promotes survival | survival of motor neurons derived from SMA patients and their parents (human motor neurons [9]): promotes survival | motor neuron survival (human motor neurons [9]; human motor neurons): promote motor neuron survival | MN survival, preliminary results (human motor neurons [9]; preliminary, believed to depend on the amount of proliferation in the culture): variable | number of surviving motor neurons [10]: significantly increases | effect of SMN RNAi on inducing motor neuron death (hb9_RFP motor neurons): significantly inhibits | number of surviving motor neurons [11]: significantly increases | SMN levels (SMN [12]): significantly increases | number of high SMN expressing motor neurons (SMN [12]): significantly increases | number of surviving motor neurons [13]: significantly increases

CC(/C=C/C(=O)NO)=C\[C@@H](C)C(=O)c1ccc(N(C)C)cc1 [Trichostatin A]
number of low SMN expressing motor neurons (human motor neurons [14]): selectively reduces
